Measured values: patent US12594267B2, “Capsid inhibitors for the treatment of HIV” (Gilead Sciences, Inc., priority 2018, dated 2026)
Like-named read-outs stand apart in the source and are kept apart here.

Legend:
NRTI-resistant viruses = type: cell-based, HIV-1; conditions: Mutant/WT (LAI) EC50 ratio, MT-2 cells, mean ± s.d. of three experiments
Protocol: (§1) The antiviral activity of the compound of Formula (a) was tested against a panel of known HIV-1 mutants resistant to HIV PIs (ATV and DRV), NRTIs (TFV and FTC), NNRTIs (RPV and EFV) or INSTIs (RAL, EVG and DTG) using a cytopathic antiviral assay in MT-2 cells.

HIV-1 clinical isolates = assay: Antiviral activity against HIV-1 clinical isolates in PHA-stimulated human PBMCs; type: cell-based
Protocol: (§2) The antiretroviral activity of the compound of Formula (Ia) was tested against a panel of 22 HIV-1 clinical isolates of HIV-1 and two HIV-2 isolates in freshly isolated, PHA-stimulated human peripheral blood mononuclear cells (PBMCs). The HIV-1 isolates included representative strains from subtypes A, B, C, D, E, F, G, N, O, AE, and AG. Following a 7-day infection, virus production was determined by measuring reverse transcriptase activity in cell-free culture supernatants.

HIV-2 isolates = assay: Antiviral activity against HIV-2 isolates in PHA-stimulated human PBMCs; type: cell-based; conditions: Human immunodeficiency virus 2, PBMC, 168 h, 7-day infection, RT activity readout, mean of triplicate
Protocol: as §2

WT HXB2D = assay: Cytopathic antiviral assay in MT-2 cells, wild type HXB2D; type: cell-based, HIV-1; conditions: Human immunodeficiency virus 1, MT2, read-out: WT HXB2D EC50, MT-2 cells, mean ± s.d. of three experiments in triplicate
Protocol: as §1, with “cells. The compound of Formula (Ia) was fully active against all tested mutants resistant to PIs (Table 11), NRTIs (Table 12), NNRTIs (Table 13) or INSTIs (Table 14).” for “cells.”

PI-resistant viruses = assay: Cytopathic antiviral assay in MT-2 cells, PI-resistant viruses; type: cell-based, HIV-1; conditions: Mutant/WT (HXB2D) EC50 ratio, mean ± s.d. of three experiments
Protocol: as §1, with “cells. The compound of Formula (Ia) was fully active against all tested mutants resistant to PIs (Table 11), NRTIs (Table 12), NNRTIs (Table 13) or INSTIs (Table 14).” for “cells.”

NNRTI-resistant viruses = assay: Cytopathic antiviral assay in MT-2 cells, NNRTI-resistant viruses; type: cell-based, HIV-1; conditions: Mutant/WT (HXB2D) EC50 ratio, mean ± s.d. of three experiments
Protocol: as §1, with “cells. The compound of Formula (Ia) was fully active against all tested mutants resistant to PIs (Table 11), NRTIs (Table 12), NNRTIs (Table 13) or INSTIs (Table 14).” for “cells.”

INSTI-resistant viruses = assay: Cytopathic antiviral assay in MT-2 cells, INSTI-resistant viruses; type: cell-based, HIV-1; conditions: Mutant/WT (HXB2D) EC50 ratio, mean ± s.d. of three experiments
Protocol: as §1, with “cells. The compound of Formula (Ia) was fully active against all tested mutants resistant to PIs (Table 11), NRTIs (Table 12), NNRTIs (Table 13) or INSTIs (Table 14).” for “cells.”

For `C[C@H](Cn1cnc2c(N)ncnc21)OCP(=O)(O)O` [TFV, tenofovir], the “EC50 Fold-Change” value (NRTI-resistant viruses; 6TAMs) was 3.0 ± 1.1, the “EC50 Fold-Change” value (NRTI-resistant viruses; K65R) was 2.4 ± 1.0 and the “EC50 Fold-Change” value (NRTI-resistant viruses; M184V) was 0.9 ± 1.0.
Work on `Cc1cn([C@H]2C[C@H](N=[N+]=[N-])[C@@H](CO)O2)c(=O)[nH]c1=O` [AZT, zidovudine] yielded an EC50 (HIV-1 clinical isolates; Human immunodeficiency virus 1, BAL, PBMC, 168 h, read-out: EC50 in human PBMCs, HIV-1 subtype B isolate Ba-L, 7-day infection, RT activity readout, mean of triplicate) of 43.2 nM, an EC50 (HIV-1 clinical isolates; Human immunodeficiency virus 1, PBMC, 168 h, read-out: EC50 in human PBMCs, HIV-1 CRF01_AE isolate 90TH_CM235, 7-day infection, RT activity readout, mean of triplicate) of 10.7 nM and an EC50 (HIV-1 clinical isolates; Human immunodeficiency virus 1, PBMC, 168 h, read-out: EC50 in human PBMCs, HIV-1 CRF02_AG isolate 01CM0008BBY, 7-day infection, RT activity readout, mean of triplicate) of 8.21 nM. It also gave an EC50 (HIV-1 clinical isolates; Human immunodeficiency virus 1, PBMC, 168 h, read-out: EC50 in human PBMCs, HIV-1 CRF02_AG isolate 91DJ263, 7-day infection, RT activity readout, mean of triplicate) of 34.9 nM, an EC50 (HIV-1 clinical isolates; Human immunodeficiency virus 1, PBMC, 168 h, read-out: EC50 in human PBMCs, HIV-1 Group N isolate YBF30, 7-day infection, RT activity readout, mean of triplicate) of 8.96 nM and an EC50 (HIV-1 clinical isolates; Human immunodeficiency virus 1, PBMC, 168 h, read-out: EC50 in human PBMCs, HIV-1 Group O isolate BCF01, 7-day infection, RT activity readout, mean of triplicate) of 10.5 nM. The EC50 (HIV-1 clinical isolates; Human immunodeficiency virus 1, PBMC, 168 h, read-out: EC50 in human PBMCs, HIV-1 subtype A isolate 92UG031, 7-day infection, RT activity readout, mean of triplicate) was 51.6 nM, the EC50 (HIV-1 clinical isolates; Human immunodeficiency virus 1, PBMC, 168 h, read-out: EC50 in human PBMCs, HIV-1 subtype A isolate 92UG037, 7-day infection, RT activity readout, mean of triplicate) was 21.7 nM and the EC50 (HIV-1 clinical isolates; Human immunodeficiency virus 1, PBMC, 168 h, read-out: EC50 in human PBMCs, HIV-1 subtype B isolate 89BZ_167, 7-day infection, RT activity readout, mean of triplicate) was 10.1 nM. For the same compound, the EC50 (HIV-1 clinical isolates; Human immunodeficiency virus 1, PBMC, 168 h, read-out: EC50 in human PBMCs, HIV-1 subtype B isolate 90US_873, 7-day infection, RT activity readout, mean of triplicate) was 13.2 nM, the EC50 (HIV-1 clinical isolates; Human immunodeficiency virus 1, PBMC, 168 h, read-out: EC50 in human PBMCs, HIV-1 subtype B isolate 91US001, 7-day infection, RT activity readout, mean of triplicate) was 20.3 nM and the EC50 (HIV-1 clinical isolates; Human immunodeficiency virus 1, PBMC, 168 h, read-out: EC50 in human PBMCs, HIV-1 subtype B isolate 91US004, 7-day infection, RT activity readout, mean of triplicate) was 19.7 nM. It also gave an EC50 (HIV-1 clinical isolates; Human immunodeficiency virus 1, PBMC, 168 h, read-out: EC50 in human PBMCs, HIV-1 subtype B isolate 96TH_NP1538, 7-day infection, RT activity readout, mean of triplicate) of 4.1 nM, an EC50 (HIV-1 clinical isolates; Human immunodeficiency virus 1, PBMC, 168 h, read-out: EC50 in human PBMCs, HIV-1 subtype B isolate JR-CSF, 7-day infection, RT activity readout, mean of triplicate) of 4.53 nM and an EC50 (HIV-1 clinical isolates; Human immunodeficiency virus 1, PBMC, 168 h, read-out: EC50 in human PBMCs, HIV-1 subtype C isolate 92BR025, 7-day infection, RT activity readout, mean of triplicate) of 16.9 nM. It also gave an EC50 (HIV-1 clinical isolates; Human immunodeficiency virus 1, PBMC, 168 h, read-out: EC50 in human PBMCs, HIV-1 subtype C isolate 98US_MSC5016, 7-day infection, RT activity readout, mean of triplicate) of 37.8 nM, an EC50 (HIV-1 clinical isolates; Human immunodeficiency virus 1, PBMC, 168 h, read-out: EC50 in human PBMCs, HIV-1 subtype D isolate 92UG001, 7-day infection, RT activity readout, mean of triplicate) of 7.29 nM and an EC50 (HIV-1 clinical isolates; Human immunodeficiency virus 1, PBMC, 168 h, read-out: EC50 in human PBMCs, HIV-1 subtype D isolate 98UG_57128, 7-day infection, RT activity readout, mean of triplicate) of 6.61 nM. It also gave an EC50 (HIV-1 clinical isolates; Human immunodeficiency virus 1, PBMC, 168 h, read-out: EC50 in human PBMCs, HIV-1 subtype E isolate CMU02, 7-day infection, RT activity readout, mean of triplicate) of 8.13 nM, an EC50 (HIV-1 clinical isolates; Human immunodeficiency virus 1, PBMC, 168 h, read-out: EC50 in human PBMCs, HIV-1 subtype E isolate CMU08, 7-day infection, RT activity readout, mean of triplicate) of 34.1 nM and an EC50 (HIV-1 clinical isolates; Human immunodeficiency virus 1, PBMC, 168 h, read-out: EC50 in human PBMCs, HIV-1 subtype F isolate 93BR020, 7-day infection, RT activity readout, mean of triplicate) of 25.1 nM. The EC50 (HIV-1 clinical isolates; Human immunodeficiency virus 1, PBMC, 168 h, read-out: EC50 in human PBMCs, HIV-1 subtype G isolate JV1083, 7-day infection, RT activity readout, mean of triplicate) was 20.5 nM, the EC50 (HIV-1 clinical isolates; Human immunodeficiency virus 1, PBMC, read-out: HIV-1 EC50 Mean ± s.d., mean over the 22 HIV-1 clinical isolates, human PBMCs) was 19 ± 13.5 nM and the EC50 (HIV-1 clinical isolates; Human immunodeficiency virus 1, PBMC, read-out: HIV-1 EC50 Median, median over the 22 HIV-1 clinical isolates, human PBMCs) was 15.1 nM. It also gave an EC50 (HIV-1 clinical isolates; Human immunodeficiency virus 1, PBMC, read-out: HIV-1 EC50 Range, range over the 22 HIV-1 clinical isolates, human PBMCs) of 4.1 to 51.6 nM, an EC50 (HIV-2 isolates; HIV-2 isolate CBL-20) of 14.3 nM and an EC50 (HIV-2 isolates; HIV-2 isolate CDC310319) of 28.8 nM.
`O=C1Nc2ccc(Cl)cc2[C@@](C#CC2CC2)(C(F)(F)F)O1` [EFV, efavirenz] showed an EC50 (WT HXB2D; INSTI-resistance panel (Table 14)) of 1.37 ± 0.51 nM, an EC50 (WT HXB2D; NNRTI-resistance panel (Table 13)) of 2.23 ± 0.18 nM and an EC50 (WT HXB2D; PI-resistance panel (Table 11)) of 1.64 ± 0.55 nM. The “EC50 Fold-Change” value (PI-resistant viruses; G48V/V82A/L90M) was 0.9 ± 0.4, the “EC50 Fold-Change” value (PI-resistant viruses; G48V/V82S) was 0.7 ± 0.1 and the “EC50 Fold-Change” value (PI-resistant viruses; I50V) was 3.0 ± 0.9. For the same compound, the “EC50 Fold-Change” value (PI-resistant viruses; I84V/L90M) was 0.4 ± 0.1, the “EC50 Fold-Change” value (NNRTI-resistant viruses; K103N) was 14.2 ± 2.7 and the “EC50 Fold-Change” value (NNRTI-resistant viruses; K103N/Y181C) was over 22.4. For the same compound, the “EC50 Fold-Change” value (NNRTI-resistant viruses; L100I/K103N) was over 22.4, the “EC50 Fold-Change” value (NNRTI-resistant viruses; Y181C) was 3.3 ± 2.5 and the “EC50 Fold-Change” value (NNRTI-resistant viruses; Y188L) was over 22.4. For the same compound, the “EC50 Fold-Change” value (INSTI-resistant viruses; E92Q/N155H) was 1.2 ± 0.6, the “EC50 Fold-Change” value (INSTI-resistant viruses; E138K/Q148K) was 0.7 ± 0.3 and the “EC50 Fold-Change” value (INSTI-resistant viruses; G140S/Q148R) was 1.0 ± 0.3. For the same compound, the “EC50 Fold-Change” value (INSTI-resistant viruses; N155H/Q148R) was 1.1 ± 0.5, the “EC50 Fold-Change” value (INSTI-resistant viruses; R263K/M50I) was 1.3 ± 0.9 and the “EC50 Fold-Change” value (INSTI-resistant viruses; Y143R) was 0.9 ± 0.6.
